Converted amounts (≈) assume the structure as drawn. The source made the active and inactive calls. No cut-off for these calls is given here.
Assays:
Bacillus spizizenii [1] = assay: Antibacterial activity against Bacillus subtilis ATCC 6633 assessed as growth inhibition at 100 uM after 24 hrs by turbidimetric analysis; type: functional; conditions: for inhibition of growth at 100 µM: ATCC 6633, 24 h, read-out: GI
Staphylococcus aureus [2] = assay: Antibacterial activity against Staphylococcus aureus ATCC 25923 assessed as growth inhibition at 100 uM after 24 hrs by turbidimetric analysis; type: functional; conditions: for inhibition of growth at 100 µM: ATCC 25923, 24 h, read-out: GI
Streptomyces scabiei [3] = assay: Antibacterial activity against Streptomyces scabiei CGMCC4.7610246 assessed as growth inhibition at 100 uM after 36 hrs by turbidimetric analysis; type: functional, organism-based
Bacillus spizizenii [4] = assay: Upregulation of ykuD gene expression in Bacillus subtilis ATCC 6633 at 0.5 x MIC by Q-RT-PCR analysis relative to control; type: functional
Bacillus spizizenii [5] = assay: Downregulation of lytF gene expression in Bacillus subtilis ATCC 6633 at 0.5 x MIC by Q-RT-PCR analysis relative to control; type: functional, organism-based
Bacillus spizizenii [6] = assay: Downregulation of mmgD gene expression in Bacillus subtilis ATCC 6633 at 0.5 x MIC by Q-RT-PCR analysis relative to control; type: functional, organism-based
Bacillus spizizenii [7] = assay: Downregulation of yhdT gene expression in Bacillus subtilis ATCC 6633 at 0.5 x MIC by Q-RT-PCR analysis relative to control; type: functional, organism-based
Bacillus spizizenii [8] = assay: Downregulation of yqhB gene expression in Bacillus subtilis ATCC 6633 at 0.5 x MIC by Q-RT-PCR analysis relative to control; type: functional, organism-based
Staphylococcus aureus [9] = assay: Upregulation of fmhB gene expression in Staphylococcus aureus ATCC 25923 at 0.5 x MIC by Q-RT-PCR analysis relative to control; type: functional, organism-based
Staphylococcus aureus [10] = assay: Upregulation of seaR gene expression in Staphylococcus aureus ATCC 25923 at 0.5 x MIC by Q-RT-PCR analysis relative to control; type: functional, organism-based
Staphylococcus aureus [11] = assay: Upregulation of hla gene expression in Staphylococcus aureus ATCC 25923 at 0.5 x MIC by Q-RT-PCR analysis relative to control; type: functional, organism-based
Bacillus spizizenii [12] = assay: Antibacterial activity against Bacillus subtilis ATCC 6633 assessed as growth inhibition after 24 hrs by turbidimetric analysis; type: functional; conditions: ATCC 6633, 24 h
Staphylococcus aureus [13] = assay: Antibacterial activity against Staphylococcus aureus ATCC 25923 assessed as growth inhibition after 24 hrs by turbidimetric analysis; type: functional; conditions: ATCC 25923, 24 h
Streptomyces scabiei [14] = assay: Antibacterial activity against Streptomyces scabiei CGMCC4.7610246 assessed as growth inhibition after 36 hrs by turbidimetric analysis; type: functional; conditions: CGMCC4.7610246, 36 h
Staphylococcus aureus [15] = assay: Antibacterial activity against Staphylococcus aureus ATCC 25923 assessed as growth inhibition after 2 to 24 hrs; type: functional, organism-based
Staphylococcus aureus [16] = assay: Potency index, ratio of ampicillin MIC to compound MIC for Staphylococcus aureus ATCC 25923; type: functional
Staphylococcus aureus [17] = assay: Downregulation of narG gene expression in Staphylococcus aureus ATCC 25923 at 0.5 x MIC by Q-RT-PCR analysis relative to control; type: functional, organism-based
Staphylococcus aureus [18] = assay: Downregulation of lytM gene expression in Staphylococcus aureus ATCC 25923 at 0.5 x MIC by Q-RT-PCR analysis relative to control; type: functional, organism-based
Escherichia coli = assay: Antibacterial activity against Escherichia coli assessed as growth inhibition at 100 uM after 24 hrs by turbidimetric analysis; type: functional, organism-based
Ralstonia solanacearum = assay: Antibacterial activity against Ralstonia solanacearum assessed as growth inhibition at 100 uM after 24 hrs by turbidimetric analysis; type: functional, organism-based

`C[C@H]1[C@H](C)CC[C@]2(C(=O)O)CC[C@]3(C)C(=CC[C@@H]4[C@@]5(C)CC[C@H](O)C(C)(C)[C@@H]5CC[C@]43C)[C@H]12` was tested, and the “growth inhibition (GI)” value (Bacillus spizizenii [1]) was “Active”, the “growth inhibition (GI)” value (Staphylococcus aureus [2]) was “Active” and the “growth inhibition (GI)” value (Streptomyces scabiei [3]) was “Active”. The Activity (Bacillus spizizenii [4]) was “Active”, the Activity (Bacillus spizizenii [5]) was “Active” and the Activity (Bacillus spizizenii [6]) was “Active”. For the same compound, the Activity (Bacillus spizizenii [7]) was “Active”, the Activity (Bacillus spizizenii [8]) was “Active” and the Activity (Staphylococcus aureus [9]) was “Active”. The Activity (Staphylococcus aureus [10]) was “Active” and the Activity (Staphylococcus aureus [11]) was “Active”.
With `CCCOC(=O)[C@]12CCC(C)(C)C[C@H]1C1=CC[C@@H]3[C@@]4(C)[C@@H](O)[C@H](O)[C@H](O)C(C)(C)[C@@H]4CC[C@@]3(C)[C@]1(C)CC2` the inhibition of growth at 100 µM (Bacillus spizizenii [1]) was > 95%, the inhibition of growth at 100 µM (Staphylococcus aureus [2]) was > 95% and the MIC (Bacillus spizizenii [12]) was 64 µM (≈ 34 µg/mL). For the same compound, the MIC (Staphylococcus aureus [13]) was 2 µM (≈ 1.06 µg/mL), the MIC (Streptomyces scabiei [14]) was ≥ 100 µM and the “growth inhibition (GI)” value (Staphylococcus aureus [15]) was “Dose-dependent effect”.
`CC(C)OC(=O)[C@]12CC[C@@H](C)[C@H](C)[C@H]1C1=CC[C@@H]3[C@@]4(C)[C@@H](O)[C@H](O)[C@H](O)C(C)(C)[C@@H]4CC[C@@]3(C)[C@]1(C)CC2` was tested, and the inhibition of growth at 100 µM (Bacillus spizizenii [1]) was > 95%, the inhibition of growth at 100 µM (Staphylococcus aureus [2]) was > 95% and the MIC (Bacillus spizizenii [12]) was 4 µM (≈ 2.12 µg/mL). For the same compound, the MIC (Staphylococcus aureus [13]) was 1 µM (≈ 0.531 µg/mL), the MIC (Streptomyces scabiei [14]) was ≥ 100 µM and the Ratio (Staphylococcus aureus [16]) was 4. The “growth inhibition (GI)” value (Staphylococcus aureus [15]) was “Dose-dependent effect”, the “fold change (FC)” value (Bacillus spizizenii [4]) was 2.5 and the Activity (Bacillus spizizenii [5]) was “Active”. For the same compound, the Activity (Bacillus spizizenii [6]) was “Active”, the Activity (Bacillus spizizenii [7]) was “Active” and the Activity (Bacillus spizizenii [8]) was “inactive”. For the same compound, the Activity (Staphylococcus aureus [9]) was “Active”, the Activity (Staphylococcus aureus [10]) was “Active” and the Activity (Staphylococcus aureus [11]) was “Active”. For the same compound, the Activity (Staphylococcus aureus [17]) was “Active”.
With `CCOC(=O)[C@]12CC[C@@H](C)[C@H](C)[C@H]1C1=CC[C@@H]3[C@@]4(C)[C@@H](O)[C@H](O)[C@H](O)C(C)(C)[C@@H]4CC[C@@]3(C)[C@]1(C)CC2` the inhibition of growth at 100 µM (Bacillus spizizenii [1]) was > 95%, the inhibition of growth at 100 µM (Staphylococcus aureus [2]) was > 95% and the MIC (Bacillus spizizenii [12]) was 64 µM (≈ 33.1 µg/mL). The MIC (Staphylococcus aureus [13]) was 2 µM (≈ 1.03 µg/mL), the MIC (Streptomyces scabiei [14]) was ≥ 100 µM and the Ratio (Staphylococcus aureus [16]) was 2. The Activity (Staphylococcus aureus [9]) was “Active”, the Activity (Staphylococcus aureus [10]) was “Active” and the Activity (Staphylococcus aureus [11]) was “Active”. For the same compound, the Activity (Staphylococcus aureus [17]) was “Active” and the Activity (Staphylococcus aureus [18]) was “Active”.
With `CCOC(=O)[C@]12CCC(C)(C)C[C@H]1C1=CC[C@@H]3[C@@]4(C)[C@@H](O)[C@H](O)[C@H](O)C(C)(C)[C@@H]4CC[C@@]3(C)[C@]1(C)CC2` the inhibition of growth at 100 µM (Bacillus spizizenii [1]) was > 95%, the inhibition of growth at 100 µM (Staphylococcus aureus [2]) was > 95% and the MIC (Bacillus spizizenii [12]) was 64 µM (≈ 33.1 µg/mL). The MIC (Staphylococcus aureus [13]) was 1 µM (≈ 0.517 µg/mL), the MIC (Streptomyces scabiei [14]) was ≥ 100 µM and the Ratio (Staphylococcus aureus [16]) was 2. For the same compound, the “growth inhibition (GI)” value (Staphylococcus aureus [15]) was “Dose-dependent effect”, the Activity (Staphylococcus aureus [9]) was “Active” and the Activity (Staphylococcus aureus [10]) was “Active”. The Activity (Staphylococcus aureus [11]) was “Active” and the Activity (Staphylococcus aureus [18]) was “Active”.
In the case of `C[C@H]1[C@H](C)CC[C@]2(C(=O)OCc3ccccc3)CC[C@]3(C)C(=CC[C@@H]4[C@@]5(C)[C@H]6O[C@H]6[C@H](O)C(C)(C)[C@@H]5CC[C@]43C)[C@H]12`, the “growth inhibition (GI)” value (Bacillus spizizenii [1]) is reported as “Active”, the “growth inhibition (GI)” value (Staphylococcus aureus [2]) is reported as “Active” and the “growth inhibition (GI)” value (Streptomyces scabiei [3]) is reported as “Active”. The “growth inhibition (GI)” value (Escherichia coli) was “Active” and the “growth inhibition (GI)” value (Ralstonia solanacearum) was “Active”.
For `C[C@H]1[C@H](C)CC[C@]2(C(=O)OCc3ccccc3)CC[C@]3(C)C(=CC[C@@H]4[C@@]5(C)[C@H]6O[C@H]6[C@@H](O)C(C)(C)[C@@H]5CC[C@]43C)[C@H]12`, the “growth inhibition (GI)” value (Bacillus spizizenii [1]) was “Active”, the “growth inhibition (GI)” value (Staphylococcus aureus [2]) was “Active” and the “growth inhibition (GI)” value (Streptomyces scabiei [3]) was “Active”. For the same compound, the “growth inhibition (GI)” value (Escherichia coli) was “Active” and the “growth inhibition (GI)” value (Ralstonia solanacearum) was “Active”.
For `CC1(C)CC[C@]2(C(=O)OCc3ccc(Cl)cc3)CC[C@]3(C)C(=CC[C@@H]4[C@@]5(C)[C@@H](O)[C@H](O)[C@H](O)C(C)(C)[C@@H]5CC[C@]43C)[C@@H]2C1`, the “growth inhibition (GI)” value (Streptomyces scabiei [3]) was “inactive”, the MIC (Bacillus spizizenii [12]) was ≥ 100 µM and the MIC (Staphylococcus aureus [13]) was 64 µM (≈ 39.2 µg/mL). The MIC (Streptomyces scabiei [14]) was ≥ 100 µM.

— ChEMBL document CHEMBL3414456, “Pentacyclic triterpene derivatives possessing polyhydroxyl ring A inhibit gram-positive bacteria growth by regulating metabolism and virulence genes expression” (2015)
